Measured values: patent US11219636B2, “Compositions and methods for treating cancer” (priority 2015, dated 2022)

Experiments:
p53 = p53 transcription activity by GFP reporter in HCT116 cells transfected with RGC-mazE-IRES-GFP plasmid; type: cell-based, human
Description: In order to test the ability of p53 to bind to its responsive element and stimulate transcription, HCT116 cells were transfected with RGC-mazE-IRES-GFP plasmid. Since p53 is degraded in un-activated cells, the present inventors used Quercetin, a ubiquitous bioactive plant flavonoid that is able to induce p53 phosphorylation, stabilization and total p53 protein accumulation. Another widely used p53 inducer is the antimetabolite agent 5-FU. P53 transcription activity was evaluated by measuring the expression of the downstream reporter gene, GFP.

p53 target genes = test: Transcription of p53 target genes, Western blot and semi-quantitative PCR; type: cell-based, human; conditions: 50 μM, 24 hours, HCT116 p53 WT cells
Description: FIGS. 14A-C are Western blot analyses of p53 (FIG. 14A), p21 (FIG. 14B) and Tubulin (FIG. 14C) of HCT116 cells after treatment with 5FU. HCT116 cells were treated with 50 μM 5FU for 24 hours. Then, total cell lysate was prepared and subjected to Western blot analysis for p53 (FIG. 14A) and p21 (FIG. 14B) analysis. Tubulin (FIG. 14C) was used as a loading control and in the analyses of both proteins for normalization.
FIGS. 15A-B depict mRNA levels of various transcripts following treatment of HCT116 cells with 5FU. HCT116 cells were treated with 50 μM 5FU for 24 hours. Then, RNA was prepared and used as a template for cDNA and semi-quantitative PCR was performed for the following transcripts: p21, Bax, Noxa, Puma, MDM2, 14-3-3o, CD95, Btg2, GADD45, and Survivin. The graph represents the quantification of mRNA levels performed using the primers listed in Table 2 in the EXAMPLES section which follows.
Further validation of endogenous p53 activation led the present inventors to test other canonical target genes. 5-FU (50 μM) was added to HCT116 p53 WT cells for 24 hours. Total cell lysate was prepared and subjected into Western blot analysis and at the same time RNA was prepared and used as a template for cDNA and semi-quantitative PCR was performed. […] In particular a tight correlation between p21 and p53 protein levels (FIGS. 14A-C).

Row | Compound | GFP expression (p53; 10 μM, compared with Quercetin) | mRNA and protein of p53 target genes (p53 target genes) | cell toxicity (HCT116 cells; even very high doses (data not shown)) | increase of GFP expression (p53; 50 μM) | cell toxicity (cell death) (HCT116 cells; transfected HCT116 cells) [%]
1 | O=c1[nH]cc(F)c(=O)[nH]1 [5-FU] | significantly higher expression levels of GFP | up regulation | no toxicity | – | –
2 | O=c1c(O)c(-c2ccc(O)c(O)c2)oc2cc(O)cc(O)c12 [Quercetin] | – | – | – | about 10 folds | 60
